Results from patent US20120107331A1, “GEMM RIBOSWITCHES, STRUCTURE-BASED COMPOUND DESIGN WITH GEMM RIBOSWITCHES, AND METHODS AND COMPOSITIONS FOR USE OF AND WITH GEMM RIBOSWITCHES” (YALE UNIVERSITY, priority 2009, published 2012).

Key:
[1] = test system: GEMM riboswitch C92U, G20A mutant; test: Gel-shift Kd measurement, C92U, G20A double mutant RNA; type: binding, Vibrio cholerae; details: for Kd: gel-shift, RNA C92U, G20A, dash = no binding
Source text: (§1) Point mutants were cloned using the Quik Change protocol. Radiolabeled c-di-GMP was obtained enzymatically according to published procedures and purified by polyacrylamide gel electrophoresis (PAGE) (Paul, R. et al. Cell cycle-dependent dynamic localization of a bacterial response regulator with a novel di-guanylate cyclase output domain. Genes & Development 18, 715-27 (2004); Christen, M., Christen, B., Folcher, M., Schauerte, A. & Jenal, U. Identification and characterization of a cyclic di-GMP-specific phosphodiesterase and its allosteric control by GTP. J Biol Chem 280, 30829-37 (2005)). A constitutively active DGC, PleD* was expressed and purified as described and the reaction was initiated using [α-^32P]GTP as the substrate (Paul, R. et al. Cell cycle-dependent dynamic localization of a bacterial response regulator with a novel di-guanylate cyclase output domain. Genes & Development 18, 715-27 (2004)). A single band appeared as the reaction proceeded that ran slower than the starting material when purified by PAGE. Radiolabeled c-diAMP was obtained similarly, using the protein DisA and [α-^32P]ATP as the substrate. Riboswitch RNAs were folded in the presence of radiolabeled c-di-GMP or c-diAMP and folding buffer. The complex was allowed to equilibrate for 1 hour and bound and free c-di-GMP were separated by native (100 mM Tris/HEPES pH 7.5, 10 mM MgCl2, 0.1 mM EDTA) PAGE at 4° C. A STORM phosphorimager was used to scan gels and the bands were quantitated using ImageQuant. Fraction bound was graphed versus RNA concentration and fit using KaleidaGraph to obtain Kds according to the equation:
(§2) F=fraction bound; F∞=fraction bound at saturation; C=riboswitch concentration
A gel-shift assay, which directly measures c-di-GMP binding to the GEMM RNA (FIG. 3A, B), was developed in order to test biochemical predictions resulting from the GEMM riboswitch structure. Specifically, radiolabeled c-di-GMP was incubated with the riboswitch and the RNA bound ligand was separated from the free on a native polyacrylamide gel. […]

[2] = molecular target: GEMM riboswitch Vc2 91 with a U1A binding loop (WT-U1A); test: Gel-shift Kd measurement, WT-U1A RNA (Vc2 91 with a U1A binding loop); design: species or system Vibrio cholerae
Source text: as §1, with “The complex was allowed to equilibrate for 1 hour and bound and free c-di-GMP were separated by native (100 mM Tris/HEPES pH 7.5, 10 mM MgCl2, 0.1 mM EDTA) PAGE at 4° C.” left out, “Fraction bound was graphed versus RNA concentration and fit using KaleidaGraph to obtain Kds according to the equation:” left out

GEMM riboswitch = details: Sudarsan et al. 2008; read-out: affinity; cited from earlier work
[3] = test system: GEMM riboswitch C92U mutant (WT-110 background); test: Gel-shift Kd measurement, C92U mutant RNA; type: binding, Vibrio cholerae; details: for Kd / binding (in words): gel-shift; for Kd: RNA C92U, dash = no binding; for binding (in words): C92U RNA
Source text: as §1, §2
(§3) A gel-shift assay, which directly measures c-di-GMP binding to the GEMM RNA (FIG. 3A, B), was developed in order to test biochemical predictions resulting from the GEMM riboswitch structure. Specifically, radiolabeled c-di-GMP was incubated with the riboswitch and the RNA bound ligand was separated from the free on a native polyacrylamide gel.
(§4) The three nucleotides directly involved in ligand recognition (G20, A47 and C92) were mutated and affinity for c-di-GMP was measured by gel shift analysis in the context of the WT-110 nucleotide background (Table 1) (Sudarsan, N. et al. Riboswitches in eubacteria sense the second messenger cyclic di-GMP. Science 321, 411-3). Mutational analysis supports the crystallographically observed base pair between a conserved cytidine, C92, and c-di-GMP. […] By mutating it to an A or G, this ability to base pair with the ligand is lost. The large effect that these mutations have on ligand binding confirms that C92 is making an important contact with Gβ. The minor affect seen upon mutation to a U is in a reasonable range given the potential to form a wobble pair with Gβ. A natural GEMM sequence has been identified that lacks a C at position 92, but instead has a C at position 93. This RNA can bind c-di-GMP with an affinity of approximately 1 uM.

[4] = test system: GEMM riboswitch C92 to A mutant (WT-110 background); test: Gel-shift affinity measurement, C92A mutant RNA; type: binding, Vibrio cholerae
Source text: (§5) Point mutants were cloned using the Quik Change protocol. Radiolabeled c-di-GMP was obtained enzymatically according to published procedures and purified by polyacrylamide gel electrophoresis (PAGE) (Paul, R. et al. Cell cycle-dependent dynamic localization of a bacterial response regulator with a novel di-guanylate cyclase output domain. Genes & Development 18, 715-27 (2004); Christen, M., Christen, B., Folcher, M., Schauerte, A. & Jenal, U. Identification and characterization of a cyclic di-GMP-specific phosphodiesterase and its allosteric control by GTP. J Biol Chem 280, 30829-37 (2005)). A constitutively active DGC, PleD* was expressed and purified as described and the reaction was initiated using [α-^32P]GTP as the substrate (Paul, R. et al. Cell cycle-dependent dynamic localization of a bacterial response regulator with a novel di-guanylate cyclase output domain. Genes & Development 18, 715-27 (2004)). […] A STORM phosphorimager was used to scan gels and the bands were quantitated using ImageQuant. […]
(§6) The three nucleotides directly involved in ligand recognition (G20, A47 and C92) were mutated and affinity for c-di-GMP was measured by gel shift analysis in the context of the WT-110 nucleotide background (Table 1) (Sudarsan, N. et al. Riboswitches in eubacteria sense the second messenger cyclic di-GMP. Science 321, 411-3). […]

[5] = test system: GEMM riboswitch G20A mutant (WT-110 background); test: Gel-shift Kd measurement, G20A mutant RNA; type: binding, Vibrio cholerae
Source text: as §5, §6

[6] = molecular target: GEMM riboswitch Vc2 91 (WT-91); test: Gel-shift Kd measurement, WT-91 RNA (crystallization construct with no U1A binding loop); design: species or system Vibrio cholerae; details: radiolabeled ligand, RNA WT-91, dash = no binding seen
Source text: as §5, with “(2004)). A single band appeared as the reaction proceeded that ran slower than the starting material when purified by PAGE. Radiolabeled c-diAMP was obtained similarly, using the protein DisA and [α-^32P]ATP as the substrate. Riboswitch RNAs were folded in the presence of radiolabeled c-di-GMP or c-diAMP and folding buffer.” for “(2004)).”

[7] = test system: GEMM riboswitch A47C mutant (WT-110 background); test: Gel-shift Kd measurement, A47C mutant RNA; type: binding, Vibrio cholerae
Source text: as §5, §6

[8] = test system: natural GEMM sequence lacking C at position 92, C at position 93 mutated to an A; test: Binding of c-di-GMP to natural GEMM sequence with C93 mutated to A
Description: as §4

[9] = molecular target: GEMM riboswitch Vc2 110 (WT-110); test: Gel-shift Kd measurement, WT-110 RNA; type: binding, Vibrio cholerae; details: for Kd / binding (in words): gel-shift; for Kd: radiolabeled ligand, RNA WT-110, dash = no binding
Source text: as §1, §2, §3
This assay was used to measure a binding constant for the crystallized RNA and also to verify that this method gave the Kd measurements similar to what had been fond using in-line probing. To validate the method, Vc2 110 was used and found to have a Kd of ˜7 nM. This value agrees well with affinities obtained previously by in-line probing for this same sequence (Sudarsan, N. et al. Riboswitches in eubacteria sense the second messenger cyclic di-GMP. Science 321, 411-3). A RNA corresponding to the crystallization construct with no U1A binding loop (Vc2 91) was then tested. […] The RNA used in the crystallographic studies (Vc2 91 with a U1A binding loop) bound with a Kd slightly weaker than wild-type, but is within 9-fold of the original value.

[10] = test system: GEMM riboswitch A47U mutant (WT-110 background); test: Gel-shift Kd measurement, A47U mutant RNA; type: binding, Vibrio cholerae
Source text: as §5, §6

[11] = test system: GEMM riboswitch G20C mutant (WT-110 background); test: Gel-shift Kd measurement, G20C mutant RNA; type: binding, Vibrio cholerae
Source text: as §1
F=fraction bound; F∞=fraction bound at saturation; C=riboswitch concentration […]
as §6

[12] = test system: GEMM riboswitch G20U mutant (WT-110 background); test: Gel-shift Kd measurement, G20U mutant RNA; type: binding, Vibrio cholerae
Source text: as §5, §6

[13] = test system: GEMM riboswitch C92 to G mutant (WT-110 background); test: Gel-shift affinity measurement, C92G mutant RNA; type: binding, Vibrio cholerae
Source text: as §5, §6

[14] = molecular target: known c-di-GMP binding proteins; details: range from 50 nM to several micromolar; Hengge 2009; read-out: binding affinity; cited from earlier work
[15] = molecular target: natural GEMM sequence that lacks a C at position 92 but has a C at position 93; test: Binding of c-di-GMP to natural GEMM sequence with C at position 93; details: read-out: affinity
Description: as §4

[16] = test system: GEMM riboswitch A47G mutant (WT-110 background); test: Gel-shift Kd measurement, A47G mutant RNA; type: binding, Vibrio cholerae; details: for Kd: gel-shift, RNA A47G, dash = no binding
Source text: as §1, §2, §3
as §4, with “A natural GEMM sequence has been identified that lacks a C at position 92, but instead has a C at position 93. This RNA can bind c-di-GMP with an affinity of approximately 1 uM.” left out

Compound: Nc1ncnc2c1ncn2[C@@H]1O[C@@H]2COP(=O)(O)O[C@H]3[C@@H](O)[C@H](n4cnc5c(N)ncnc54)O[C@@H]3COP(=O)(O)O[C@H]2[C@H]1O [c-di-AMP, cyclic diadenosine monophosphate]
- bound c-di-AMP better than c-di-GMP ([1]; C92U/G20A double mutant): approximately 6 fold
- Kd [1]: 540 ± 29 nM

Compound: Nc1nc2c(ncn2[C@@H]2O[C@@H]3COP(=O)(O)O[C@H]4[C@@H](O)[C@H](n5cnc6c(=O)[nH]c(N)nc65)O[C@@H]4COP(=O)(O)O[C@H]3[C@H]2O)c(=O)[nH]1 [c-di-GMP, cyclic diguanosine monophosphate]
- Kd weaker than wild-type ([2]; Vc2 91 with U1A binding loop vs original value): ≤ 9 fold
- Kd ([2]; gel-shift, radiolabeled ligand, RNA WT-U1A, dash = no binding seen): 55 ± 14 nM
- Kd (GEMM riboswitch): ~1 nM
- loss in affinity ([3]; C92U vs wild-type, c-di-GMP): 6 fold
- Kd [3]: 43 ± 19 nM
- effect of mutation on affinity (in words) [4]: reduces affinity for c-di-GMP substantially
- effect of mutation on affinity (in words) ([5]; G20 to A): maintains approximately wild-type affinity
- Kd ([5]; gel-shift, RNA G20A, dash = no binding): 4.7 ± 1.3 nM
- Kd [6]: 6.4 ± 2.8 nM
- decrease in binding affinity ([7]; A47 mutated to C vs wild-type): approximately 1000 fold
- Kd ([7]; gel-shift, RNA A47C, dash = no binding): 8500 ± 3000 nM
- affinity (in words) [8]: all affinity for c-di-GMP is lost
- Kd [9]: 7.4 ± 2.4 nM
- decrease in binding affinity ([10]; A47 mutated to U vs wild-type): approximately 1000 fold
- Kd ([10]; gel-shift, RNA A47U, dash = no binding): 3500 ± 520 nM
- reduction in affinity ([11]; G20C vs wild-type): 2 fold
- effect of mutation on affinity (in words) ([11]; G20 to C): maintains approximately wild-type affinity
- Kd ([11]; gel-shift, RNA G20C, dash = no binding): 13 ± 1.2 nM
- loss in affinity ([12]; G20U vs wild-type): approximately 45 fold
- Kd ([12]; gel-shift, RNA G20U, dash = no binding): 330 ± 150 nM
- effect of mutation on affinity (in words) [13]: reduces affinity for c-di-GMP substantially
- Kd [14]: ≥ 50 nM
- Kd [1]: 3200 ± 600 nM
- Kd [15]: ~1000 nM
- decrease in binding affinity ([16]; A47 mutated to G vs wild-type): approximately 1000 fold
- Kd [16]: 4200 ± 1700 nM

Compound: Nc1nc2c(ncn2[C@@H]2O[C@H](COP(=O)(O)O[C@H]3[C@@H](O)[C@H](n4cnc5c(N)ncnc54)O[C@@H]3COP(=O)(O)O)[C@@H](O)[C@H]2O)c(=O)[nH]1 [pApG]
- binding (in words) [3]: does not bind

Compound: Nc1nc2c(ncn2[C@@H]2O[C@H](COP(=O)(O)O)[C@@H](OP(=O)(O)OC[C@H]3O[C@@H](n4cnc5c(N)ncnc54)[C@H](O)[C@@H]3O)[C@H]2O)c(=O)[nH]1 [pGpA]
- affinity lower than that of the wild-type RNA for pGpG ([3]; C92U RNA with pGpA vs wild-type RNA with pGpG): approximately 27 fold
- binding (in words) [3]: binding was observed
- Kd [3]: 16000 ± 5200 nM
- binding (in words) ([9]; wild-type sequence): not

Compound: Nc1nc2c(ncn2[C@@H]2O[C@H](COP(=O)(O)O[C@H]3[C@@H](O)[C@H](n4cnc5c(=O)[nH]c(N)nc54)O[C@@H]3COP(=O)(O)O)[C@@H](O)[C@H]2O)c(=O)[nH]1 [pGpG]
- binding (in words) [3]: does not bind
- Kd [9]: 490 ± 150 nM
- binding (in words) ([9]; wild-type sequence): binds
- affinity lower than that of the cyclic ligand ([9]; wild-type sequence, pGpG vs c-di-GMP): approximately 66 fold
- binds the linear form better than c-di-GMP ([16]; A47G, pGpG vs c-di-GMP): 3 fold
- Kd [16]: 1400 ± 120 nM
